From ChEMBL document CHEMBL5532636 (Eur J Med Chem, 2023) come the findings set out here.

The term inhibition denotes how much of the control response was suppressed.

Each structure is given as a SMILES string.

This test deals with SARS-CoV-2. The test is described as follows: Antiviral activity against SARS-CoV-2 Omicron BA.5 variant infected in African green monkey Vero E6 cells assessed as inhibition in viral replication at 25 ug/ml preincubated with cell culture for 1 hr and further infected with virus for 1 hr followed by removal of virus particles and subsequent replacement of medium containing compound measured for 72 hrs post-infection by RT-PCR analysis relative to control. It is filed as functional. The note with it: Severe acute respiratory syndrome coronavirus 2, Omicron BA.5, Vero C1008, time 73 hrs.

As for `O=c1cc(-c2ccccc2)oc2cc(O)c(O)c(O)c12` [BAICALEIN], the inhibition at 25 µg/mL was over 50%.
